Data reported in ChEMBL document CHEMBL1201862, “PubChem BioAssay data set” (2004).
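These data come from cells grown in 96-well plates and exposed to compound for 48 hours at five concentrations. Here, GI50 denotes the concentration required for 50% inhibition of growth.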 Calls of active or inactive are those of the source. No stated cut-off is given here; in the data, active = GI50 up to about 1.1 µM and inactive = higher.

How the values were obtained:
Test in all cases: DTP human tumour cell line panel, 48 h
786-0 = test system: 786-0
A549 = test system: A549
ACHN = test system: ACHN
BT-549 = test system: BT-549
CAKI-1 = test system: CAKI-1
CCRF-CEM = test system: CCRF-CEM
COLO 205 = test system: COLO 205
DU-145 = test system: DU-145
EKVX = test system: EKVX
HCC 2998 = test system: HCC 2998
HCT-116 = test system: HCT-116
HCT-15 = test system: HCT-15
HL-60 = test system: HL-60
HOP-62 = test system: HOP-62
HOP-92 = test system: HOP-92
HT-29 = test system: HT-29
IGROV-1 = test system: IGROV-1
K562 = test system: K562
KM12 = test system: KM12
LOX IMVI = test system: LOX IMVI
M14 = test system: M14
MCF7 = test system: MCF7
MDA-MB-231 = test system: MDA-MB-231
MDA-MB-435 = test system: MDA-MB-435
MDA-N = test system: MDA-N
MOLT-4 = test system: MOLT-4
NCI-H226 = test system: NCI-H226
NCI-H23 = test system: NCI-H23
NCI-H460 = test system: NCI-H460
NCI/ADR-RES = test system: NCI/ADR-RES
OVCAR-3 = test system: OVCAR-3
OVCAR-4 = test system: OVCAR-4
OVCAR-5 = test system: OVCAR-5
OVCAR-8 = test system: OVCAR-8
PC-3 = test system: PC-3
RPMI-8226 = test system: RPMI-8226
RXF 393 = test system: RXF 393
SF-295 = test system: SF-295
SF-539 = test system: SF-539
SK-MEL-28 = test system: SK-MEL-28
SK-MEL-2 = test system: SK-MEL-2
SK-MEL-5 = test system: SK-MEL-5
SK-OV-3 = test system: SK-OV-3
SN12C = test system: SN12C
SNB-19 = test system: SNB-19
SNB-75 = test system: SNB-75
SR = test system: SR
SW-620 = test system: SW-620
T47D = test system: T47D
TK-10 = test system: TK-10
U-251 = test system: U-251
UACC-257 = test system: UACC-257
UACC-62 = test system: UACC-62
UO-31 = test system: UO-31
Malme-3M = test system: Malme-3M
NCI-H522 = test system: NCI-H522
SF-268 = test system: SF-268
A498 = test system: A498
Hs-578T = test system: Hs-578T

Measured: GI50

COc1cccc(-c2cccc(SC)n2)n1
27 µM: HCT-15
inactive: 786-0 28.8 µM | A549 23.8 µM | ACHN 36.8 µM | BT-549 31.3 µM | CAKI-1 60 µM | CCRF-CEM 18.2 µM | COLO 205 19.1 µM | DU-145 34.4 µM | EKVX 17.7 µM | HCC 2998 23.4 µM | HCT-116 28.4 µM | HL-60 12.1 µM | HOP-62 27.9 µM | HOP-92 19.5 µM | HT-29 21.8 µM | IGROV-1 27.2 µM | K562 26.2 µM | KM12 34 µM | LOX IMVI 33.1 µM | M14 24 µM | MCF7 31.3 µM | MDA-MB-231 40.4 µM | MDA-MB-435 26.4 µM | MDA-N 29.6 µM | MOLT-4 21.5 µM | NCI-H226 15.8 µM | NCI-H23 23.8 µM | NCI-H460 29 µM | NCI/ADR-RES 28.4 µM | OVCAR-3 20.8 µM | OVCAR-4 36.2 µM | OVCAR-5 29.2 µM | OVCAR-8 35.6 µM | PC-3 38.6 µM | RPMI-8226 23.4 µM | RXF 393 18.7 µM | SF-295 34.4 µM | SF-539 32.1 µM | SK-MEL-28 29.6 µM | SK-MEL-2 36.3 µM | SK-MEL-5 20.5 µM | SK-OV-3 56.5 µM | SN12C 36.8 µM | SNB-19 40.7 µM | SNB-75 26.4 µM | SR 18.1 µM | SW-620 32 µM | T47D 18.2 µM | TK-10 39.2 µM | U-251 36.7 µM | UACC-257 21 µM | UACC-62 36.2 µM | UO-31 30.5 µM

NC(=O)N/N=C1\CCCCc2ccccc21
> 10 µM: HCT-15
inactive: 786-0 > 10 µM | A549 > 10 µM | ACHN > 10 µM | BT-549 > 10 µM | CAKI-1 > 10 µM | CCRF-CEM > 10 µM | COLO 205 > 10 µM | DU-145 > 10 µM | EKVX > 10 µM | HCC 2998 > 10 µM | HCT-116 > 10 µM | HOP-62 > 10 µM | HOP-92 > 10 µM | HT-29 > 10 µM | K562 > 10 µM | KM12 > 10 µM | M14 > 10 µM | MCF7 > 10 µM | MDA-MB-231 > 10 µM | MDA-MB-435 > 10 µM | MDA-N > 10 µM | MOLT-4 > 10 µM | Malme-3M > 10 µM | NCI-H226 > 10 µM | NCI-H23 > 10 µM | NCI-H460 > 10 µM | NCI-H522 > 10 µM | NCI/ADR-RES > 10 µM | OVCAR-3 > 10 µM | OVCAR-4 > 10 µM | OVCAR-5 > 10 µM | OVCAR-8 > 10 µM | PC-3 > 10 µM | RPMI-8226 > 10 µM | RXF 393 > 10 µM | SF-268 > 10 µM | SK-MEL-2 > 10 µM | SN12C > 10 µM | SNB-19 > 10 µM | SR > 10 µM | SW-620 > 10 µM | T47D > 10 µM | TK-10 > 10 µM | U-251 > 10 µM | UACC-257 > 10 µM | UO-31 > 10 µM

O=[N+]([O-])c1ccc(C2NC(=S)NC3c4cc([N+](=O)[O-])ccc4CCCC23)cc1 (centres undefined)
inactive: 786-0 97.1 µM | A498 76.7 µM | A549 78.3 µM | ACHN 63.4 µM | BT-549 38.8 µM | CAKI-1 > 100 µM | CCRF-CEM 39.4 µM | COLO 205 > 100 µM | DU-145 33 µM | EKVX 77.3 µM | HCC 2998 > 100 µM | HCT-116 > 100 µM | HL-60 > 100 µM | HOP-62 57.4 µM | HOP-92 15.4 µM | HT-29 > 100 µM | Hs-578T > 100 µM | IGROV-1 36.9 µM | K562 > 100 µM | KM12 > 100 µM | LOX IMVI > 100 µM | M14 > 100 µM | MCF7 41.8 µM | MDA-MB-231 > 100 µM | MDA-MB-435 > 100 µM | MOLT-4 > 100 µM | Malme-3M > 100 µM | NCI-H226 53.5 µM | NCI-H23 67.3 µM | NCI-H460 > 100 µM | NCI-H522 69.7 µM | NCI/ADR-RES > 100 µM | OVCAR-3 40.7 µM | OVCAR-4 56.4 µM | OVCAR-5 > 100 µM | OVCAR-8 52.2 µM | PC-3 55.7 µM | RPMI-8226 58.9 µM | RXF 393 18.2 µM | SF-268 46.8 µM | SF-295 46.6 µM | SF-539 39.1 µM | SK-MEL-28 > 100 µM | SK-MEL-2 > 100 µM | SK-MEL-5 > 100 µM | SK-OV-3 > 100 µM | SN12C > 100 µM | SNB-19 40.9 µM | SNB-75 16.6 µM | SR > 100 µM | SW-620 > 100 µM | T47D 35.6 µM | TK-10 > 100 µM | U-251 44.9 µM | UACC-257 > 100 µM | UACC-62 31.2 µM | UO-31 63.8 µM
> 100 µM: HCT-15
